Results as given in publication PMC5132201, “Formylated MHC Class Ib Binding Peptides Activate Both Human and Mouse Neutrophils Primarily through Formyl Peptide Receptor 1” (PLoS ONE, 2016).
Square brackets hold non-standard residues; d marks the D form. Ends that are not written are not given here. Peptide text beside a SMILES is read from it. * marks the point of attachment. For = O=C*

Key:
[1] = biological target: T1, bone marrow derived mouse neutrophils (Mus musculus, UniProt P33766); details: for EC50, NADPH-oxidase activity (superoxide production): TNF-α primed bone marrow derived mouse neutrophils, isoluminol/HRP chemiluminescence, 37°C, peak response as percent of maximal response, mean of 3-4 independent experiments; for Relative potency, mouse versus human neutrophils: comparison of EC50 values of NADPH-oxidase activation in the two species
T1 sequence (P33766 1-364): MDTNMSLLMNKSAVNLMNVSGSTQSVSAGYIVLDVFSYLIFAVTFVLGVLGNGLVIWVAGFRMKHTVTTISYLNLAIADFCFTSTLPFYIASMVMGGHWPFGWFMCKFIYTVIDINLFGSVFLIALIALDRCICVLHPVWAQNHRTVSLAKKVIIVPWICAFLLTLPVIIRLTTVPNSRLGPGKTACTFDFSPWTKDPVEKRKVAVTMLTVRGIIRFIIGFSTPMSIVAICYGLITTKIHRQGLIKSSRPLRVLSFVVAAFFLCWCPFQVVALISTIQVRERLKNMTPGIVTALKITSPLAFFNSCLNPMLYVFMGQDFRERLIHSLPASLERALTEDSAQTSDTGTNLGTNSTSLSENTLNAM

human neutrophils = biological target: T2, human neutrophils (Homo sapiens, UniProt P21462); assay: NADPH-oxidase activity (superoxide production), isoluminol/HRP chemiluminescence, human neutrophils; format: cell-based; details: for Concentration needed to induce full NADPH-oxidase activity: efficacy close to that of fMIFL; for EC50, NADPH-oxidase activity (superoxide production): isoluminol/HRP chemiluminescence, 37°C, peak response as percent of maximal response, mean of 3-4 independent experiments
T2 sequence (P21462 1-350): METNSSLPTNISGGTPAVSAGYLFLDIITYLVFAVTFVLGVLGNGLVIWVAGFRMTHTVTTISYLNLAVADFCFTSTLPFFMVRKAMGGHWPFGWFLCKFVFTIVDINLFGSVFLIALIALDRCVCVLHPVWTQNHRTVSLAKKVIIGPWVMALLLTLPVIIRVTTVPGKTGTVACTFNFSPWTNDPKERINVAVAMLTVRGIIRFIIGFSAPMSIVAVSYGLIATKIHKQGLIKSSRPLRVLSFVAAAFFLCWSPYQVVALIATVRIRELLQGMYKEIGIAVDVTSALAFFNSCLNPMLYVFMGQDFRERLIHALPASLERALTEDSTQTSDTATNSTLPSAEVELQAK

M3 = details: high-, medium- and low-binders by induction of M3 expression on P388-M3 transfected cells; cited from earlier work
H2-M3 = details: crystal structure study; cited from earlier work
Excerpt: Much less is known about the murine Fprs. It is clear that mouse neutrophils express orthologous of FPR1 and FPR2 (Fpr1 and Fpr2, respectively), but the pharmacological similarities/differences between the human and mouse neutrophil receptors have not been characterized in detail. […] In addition to Fprs, another immune response system, the H2-M3 complex, has evolved in ...

Fpr2^-/- neutrophils = assay: NADPH-oxidase activity in neutrophils from wild type versus Fpr2-/- mice; format: cell-based; details: mouse neutrophils; from WT versus Fpr2-/- cells
Description: Mice (10–16 weeks of age) were killed by cervical dislocation, the femurs and tibias were removed and freed of soft tissue attachments, and the extreme distal tip of each extremity was cut off. KRG without Ca^2+ and Mg^2+ (KRG-) was forced through the bone by using a 1-ml syringe with a 27-gauge needle. After dispersing cell clumps and removing the debris, the bone marrow granulocytes were isolated according to an earlier described procedure [26] with some modifications. Briefly, cell suspensions in 2 ml of KRG (−) were laid on top of a three-layer Percoll gradient (1.095, 1.085, and 1.070 g/ml). The density of each Percoll solution was verified using density marker beads. […] The cell number and population of bone marrow cells were determined by flow cytometry.
NADPH-oxidase activity was determined using isoluminol and HRP-enhanced chemiluminescence (CL) systems that allow for the determination of superoxide production [27, 28]. […] The light emission was recorded continuously.
Naïve bone marrow cells produce very low level of superoxide upon stimulation and to increase this production, the cells were routinely primed for one hour at RT follow by mouse recombinant TNF-α (10 ng/ml, final concentration) priming for a period of 20 min at 37°C, after which the cells were stimulated and ROS production was determined as described above.

FPR2 = assay: NADPH-oxidase activity in human neutrophils pre-incubated with the FPR2 antagonist PBP10; format: cell-based; details: human neutrophils pre-incubated 5 min at 37°C with 1 μM PBP10 (FPR2 antagonist)
Description: (§1) NADPH-oxidase activity was determined using isoluminol and HRP-enhanced chemiluminescence (CL) systems that allow for the determination of superoxide production. […] The tubes containing 4 U HRP and 10 μg/ml isoluminol together with the cells were equilibrated in the Biolumat for 10 min at 37°C, after which the stimulus (100 μl) was added. The light emission was recorded continuously.
(§2) Neutrophil NADPH-oxidase activity was measured by an isoluminol/HPR chemiluminescence system. […] (10 nM; time for addition indicated by an arrow). […] (1 μM) in the presence or absence (control) of FPR specific inhibitors. Abscissa, Time of study (min); ordinate, superoxide production (in arbitrary light units, cpmx10^-6). […] Data are expressed as mean ± SD from four independent experiments. Abscissa, agonist concentration (M); ordinate, superoxide production (percent of max).

FPR1 = assay: NADPH-oxidase activity in human neutrophils pre-incubated with the FPR1 antagonist cyclosporine H; format: cell-based; details: for Effect of cyclosporine H on the peptide-induced activity: human neutrophils pre-incubated 5 min at 37°C with 1 μM cyclosporine H (FPR1 antagonist); for Preferred receptor: human neutrophils, from cyclosporine H / PBP10 sensitivity
Description: as §1, §2

[2] = biological target: formyl peptide receptor 1 (mouse) (mouse (endogenous in bone marrow neutrophils)) (UniProt P33766)
[3] = biological target: formyl peptide receptor 1 (human) (human (endogenous in neutrophils)) (UniProt P21462)
[4] = biological target: formyl peptide receptor 1 (human) (human (endogenous in neutrophils)) (UniProt P21462); remark: listed apart in the source
[5] = biological target: formyl peptide receptor 1 (human) (human (endogenous in neutrophils)) (UniProt P21462); remark: listed apart in the source

## fMILLV [formylated peptide from a Mycobacterium tuberculosis transport permease]
[1]
  EC50, NADPH-oxidase activity (superoxide production): low nM range
  Relative potency, mouse versus human neutrophils: equally potent
Human neutrophils; human neutrophils
  Concentration needed to induce full NADPH-oxidase activity: around 100 nM
  EC50, NADPH-oxidase activity (superoxide production): low nM range
M3
  M3 binding affinity group: highest M3 affinity

## fGYFINILTL
[1]
  Neutrophil activation: Neither human nor mouse neutrophils could be activated
Human neutrophils
  Neutrophil activation: Neither human nor mouse neutrophils could be activated

## CC[C@H](C)[C@H](NC(=O)[C@H](CC(N)=O)NC(=O)[C@@H](NC(=O)[C@H](Cc1ccccc1)NC(=O)[C@H](Cc1ccc(O)cc1)NC(=O)[C@H](CCSC)NC=O)[C@@H](C)CC)C(=O)N[C@@H](CC(C)C)C(=O)N[C@H](C(=O)N[C@@H](CC(C)C)C(=O)O)[C@@H](C)O (For-MYFINILTL-OH; C-terminus assumed)
H2-M3
  Preference of H2-M3 for binding the N-formylated over the non-formylated peptide: 10^4 fold
Fpr2^-/- neutrophils
  Preferred receptor: Fpr1
[1]
  EC50: 14 nM
  EC50, NADPH-oxidase activity (superoxide production): low nM range
FPR2
  Effect of PBP10 on the peptide-induced activity: no inhibition
Human neutrophils; human neutrophils, compared with fMLF or fMIFL
  Agonist efficacy (full/partial): full agonist
Human neutrophils; human neutrophils
  Concentration needed to induce full NADPH-oxidase activity: around 100 nM
FPR1
  Effect of cyclosporine H on the peptide-induced activity: inhibited
  Preferred receptor: FPR1

## MYFINILTL
[1]
  NADPH-oxidase activity induced: No activity
FPR2
  Effect of PBP10 on the peptide-induced activity: inhibited by PBP10
Human neutrophils; human neutrophils, concentrations lower than 1 μM
  NADPH-oxidase activity induced: No activity
Human neutrophils; human neutrophils, peptide 1 μM (Fig 1A inset)
  NADPH-oxidase activity induced: very low level of activity
FPR1
  Effect of cyclosporine H on the peptide-induced activity: not by cyclosporine H
  Preferred receptor: FPR2

## fMFFLDA [formylated peptide from a Mycobacterium tuberculosis ribonuclease]
[1]
  Relative potency, mouse versus human neutrophils: very similar in the two species
M3
  M3 binding affinity group: middle range

## GYFINILTL
[1]
  Neutrophil activation: Neither human nor mouse neutrophils could be activated
Human neutrophils
  Neutrophil activation: Neither human nor mouse neutrophils could be activated

## fMIVVLV [formylated peptide from a Mycobacterium tuberculosis pyrophosphohydrolase]
[1]
  EC50, NADPH-oxidase activity (superoxide production): low nM range
  Relative potency, mouse versus human neutrophils: more potent on mouse cells than on human cells
Human neutrophils; human neutrophils
  EC50, NADPH-oxidase activity (superoxide production): low nM range
M3
  M3 binding affinity group: highest M3 affinity

## fMLFAAL [formylated peptide from a Mycobacterium tuberculosis permease]
[1]
  Relative potency, mouse versus human neutrophils: potencies were reversed
Human neutrophils; human neutrophils
  Potency rank among the peptides: most potent to activate human neutrophils
  Concentration needed to induce full NADPH-oxidase activity: around 100 nM
M3
  M3 binding affinity group: lowest binding affinity

## fMWYYLF [formylated peptide from a Mycobacterium tuberculosis acyltransferase]
[1]
  Relative potency, mouse versus human neutrophils: more potent for murine cells than for human cells
[1]; mouse neutrophils
  Potency rank among the peptides: most potent to activate mouse neutrophils
M3
  M3 binding affinity group: lowest binding affinity

## fMIVIL [formylated peptide from a not identified protein in Listeria monocytogenes]
[1]
  EC50, NADPH-oxidase activity (superoxide production): low nM range
  Relative potency, mouse versus human neutrophils: order of potency was reversed
Human neutrophils; human neutrophils
  EC50, NADPH-oxidase activity (superoxide production): low nM range
M3
  M3 binding affinity group: highest M3 affinity

## For-MFLIDV [fMFLIDV]
[2]
  EC50 of NADPH-oxidase activity in mouse neutrophils: 1 nM
[3]
  EC50 of NADPH-oxidase activity in human neutrophils: 100 nM

## For-[dM]YFINILTL [fmYFINILTL]
[4]
  EC50 of superoxide release from human neutrophils: 200 nM

## For-MYFINILTL [f…]
[5]
  EC50 of NADPH-oxidase activity (superoxide production, isoluminol/HRP chemiluminescence) in human neutrophils: 5 nM
